The first assay has as its target ATX (human His-tagged) (Homo sapiens (Human), UniProt Q13822). Description: Human ATX enzyme inhibition assay (fluorescence quenching, MR121 substrate). The note with it: 30 nM ATX, 1 μM MR121 substrate, 30° C., pH 8.0; read-out: ATX IC50. Format: biochemical. The source says:
Human ATX Enzyme Inhibition Assay
Assay working solutions were made as follows:
In the case of `O=C(OCc1ccc(OC(F)(F)F)cc1)N1C[C@@H]2CN(C(=O)c3ccc4[nH]nnc4c3)C[C@@]2(F)C1` (relative stereo) [Example 1.00, trans-5-(1H-Benzotriazole-5-carbonyl)-3a-fluoro-hexahydro-pyrrolo[3,4-c]pyrrole-2-carboxylic acid 4-trifluoromethoxy-benzyl ester], the IC50 – broadly, the concentration that gives 50% inhibition – was determined as 5 nM. Still for that read-out and setting: then `CO[C@]12CN(C(=O)OCc3ccc(OC(F)(F)F)cc3)C[C@@H]1CN(C(=O)c1ccc3[nH]nnc3c1)C2` (relative stereo) [Example 1.01, trans-5-(1H-benzotriazole-5-carbonyl)-3a-methoxy-hexahydro-pyrrolo[3,4-c]pyrrole-2-carboxylic acid 4-trifluoromethoxy-benzyl ester], with 12 nM; and `CO[C@]12CN(C(=O)CCc3ccc(OC(F)(F)F)cc3)C[C@@H]1CN(C(=O)c1ccc3[nH]nnc3c1)C2` (relative stereo) [Example 1.02, trans-1-[5-(1H-benzotriazole-5-carbonyl)-3a-methoxy-3,4,6,6a-tetrahydro-1H-pyrrolo[3,4-c]pyrrol-2-yl]-3-[4-(trifluoromethoxy)phenyl]propan-1-one], with 10 nM.

`CO[C@@]12CN(C(=O)c3cc(OCC4CCOCC4)nc(C4CC4)c3)C[C@H]1CN(C(=O)c1ccc3[nH]nnc3c1)C2` (relative stereo) [Example 1.03, trans-[5-[2-cyclopropyl-6-(oxan-4-ylmethoxy)pyridine-4-carbonyl]-3a-methoxy-3,4,6,6a-tetrahydro-1H-pyrrolo[3,4-c]pyrrol-2-yl]-(1H-benzotriazol-5-yl)methanone]: the IC50 was found to be 13 nM. Same read-out and setting: then `C[C@]12CN(C(=O)OCc3ccc(OC(F)(F)F)cc3)C[C@@H]1CN(C(=O)c1ccc3[nH]nnc3c1)C2` (relative stereo) [Example 1.04, trans-5-(1H-benzotriazole-5-carbonyl)-3a-methyl-hexahydro-pyrrolo[3,4-c]pyrrole-2-carboxylic acid 4-trifluoromethoxy-benzyl ester], with 13 nM. Consider `CO[C@]12CN(C(=O)CCc3ccc(OC(F)(F)F)cc3)C[C@@H]1CN(C(=O)c1ccc3[nH]c(=O)n(C)c3c1)C2` (relative stereo) [Example 1.05, trans-5-[3a-methoxy-2-[3-[4-(trifluoromethoxy)phenyl]propanoyl]-3,4,6,6a-tetrahydro-1H-pyrrolo[3,4-c]pyrrole-5-carbonyl]-3-methyl-1H-benzimidazol-2-one], for which the concentration for half-maximal inhibition (IC50) is 18 nM. As for `CO[C@@]12CN(C(=O)c3cc(OCC4CCOCC4)nc(C4CC4)c3)C[C@H]1CN(C(=O)c1ccc3[nH]c(=O)n(C)c3c1)C2` (relative stereo) [Example 1.06, trans-5-[5-[2-cyclopropyl-6-(oxan-4-ylmethoxy)pyridine-4-carbonyl]-3a-methoxy-3,4,6,6a-tetrahydro-1H-pyrrolo[3,4-c]pyrrole-2-carbonyl]-3-methyl-1H-benzimidazol-2-one], the 50% inhibitory concentration (IC50) came out at 2 nM.

For the compound `CO[C@]12CN(C(=O)CCc3ccc(OC(F)(F)F)cc3)C[C@@H]1CN(C(=O)N1CCc3[nH]nnc3C1)C2` (relative stereo) [Example 2.01, trans-1-[3a-methoxy-5-(1,4,6,7-tetrahydrotriazolo[4,5-c]pyridine-5-carbonyl)-3,4,6,6a-tetrahydro-1H-pyrrolo[3,4-c]pyrrol-2-yl]-3-[4-(trifluoromethoxy)phenyl]propan-1-one], the IC50 was determined as 30 nM.

For the compound `CO[C@]12CN(C(=O)CCc3ccc(OC(F)(F)F)cc3)C[C@@H]1CN(C(=O)N1CCc3c(O)noc3C1)C2` (relative stereo) [Example 2.02, trans-1-[5-(3-hydroxy-5,7-dihydro-4H-[1,2]oxazolo[5,4-c]pyridine-6-carbonyl)-3a-methoxy-3,4,6,6a-tetrahydro-1H-pyrrolo[3,4-c]pyrrol-2-yl]-3-[4-(trifluoromethoxy)phenyl]propan-1-one], the 50% inhibitory concentration (IC50) worked out at 120 nM. As to `CO[C@]12CN(C(=O)c3cc(OCC4CCOCC4)nc(C4CC4)c3)C[C@@H]1CN(C(=O)N1CCc3c(O)noc3C1)C2` (relative stereo) [Example 2.03, trans-[5-(3-hydroxy-5,7-dihydro-4H-[1,2]oxazolo[5,4-c]pyridine-6-carbonyl)-3a-methoxy-3,4,6,6a-tetrahydro-1H-pyrrolo[3,4-c]pyrrol-2-yl]-[2-cyclopropyl-6-(oxan-4-ylmethoxy)pyridin-4-yl]methanone], the 50% inhibitory concentration (IC50) amounted to 18 nM. As to `CO[C@@]12CN(C(=O)c3cc(OCC4CCOCC4)nc(C4CC4)c3)C[C@H]1CN(C(=O)N1CCc3c(O)noc3C1)C2` (single isomer, unassigned) [Example 3.01, trans-[5-(3-hydroxy-5,7-dihydro-4H-[1,2]oxazolo[5,4-c]pyridine-6-carbonyl)-3a-methoxy-3,4,6,6a-tetrahydro-1H-pyrrolo[3,4-c]pyrrol-2-yl]-[2-cyclopropyl-6-(oxan-4-ylmethoxy)pyridin-4-yl]methanone], the half-inhibitory concentration (IC50) is 20 nM.

Regarding `C[C@@]12CN(C(=O)OCc3ccc(OC(F)(F)F)cc3)C[C@H]1CN(C(=O)c1ccc3[nH]nnc3c1)C2` (single isomer, unassigned) [Example 3.02, (+)-trans-5-(1H-benzotriazole-5-carbonyl)-3a-methyl-hexahydro-pyrrolo[3,4-c]pyrrole-2-carboxylic acid 4-trifluoromethoxy-benzyl ester], the IC50 was 12 nM. On the same count and under the same terms, the result for `CO[C@@]12CN(C(=O)OCc3ccc(OC(F)(F)F)cc3)C[C@H]1CN(C(=O)c1ccc3[nH]nnc3c1)C2` (single isomer, unassigned) [Example 3.03, (−)-trans-5-(1H-benzotriazole-5-carbonyl)-3a-methoxy-hexahydro-pyrrolo[3,4-c]pyrrole-2-carboxylic acid 4-trifluoromethoxy-benzyl ester] reads 19 nM; that for `CO[C@@]12CN(C(=O)c3cc(OCC4CCOCC4)nc(C4CC4)c3)C[C@H]1CN(C(=O)N1CCc3c(O)noc3C1)C2` (single isomer, unassigned) [Example 4.01, trans-[5-(3-hydroxy-5,7-dihydro-4H-[1,2]oxazolo[5,4-c]pyridine-6-carbonyl)-3a-methoxy-3,4,6,6a-tetrahydro-1H-pyrrolo[3,4-c]pyrrol-2-yl]-[2-cyclopropyl-6-(oxan-4-ylmethoxy)pyridin-4-yl]methanone], 8 nM; that for `C[C@@]12CN(C(=O)OCc3ccc(OC(F)(F)F)cc3)C[C@H]1CN(C(=O)c1ccc3[nH]nnc3c1)C2` (single isomer, unassigned) [Example 4.02, (−)-trans-5-(1H-benzotriazole-5-carbonyl)-3a-methyl-hexahydro-pyrrolo[3,4-c]pyrrole-2-carboxylic acid 4-trifluoromethoxy-benzyl ester], 6 nM. Turning to `CO[C@@]12CN(C(=O)OCc3ccc(OC(F)(F)F)cc3)C[C@H]1CN(C(=O)c1ccc3[nH]nnc3c1)C2` (single isomer, unassigned) [Example 4.03, (+)-trans-5-(1H-benzotriazole-5-carbonyl)-3a-methoxy-hexahydro-pyrrolo[3,4-c]pyrrole-2-carboxylic acid 4-trifluoromethoxy-benzyl ester], the half-inhibitory concentration (IC50) turned out to be 7 nM.

Staying with this assay, now noted: ATX IC50, 30 nM ATX, 1 μM MR121 substrate, 30° C., pH 8.0.
Compound `CO[C@]12CN(C(=O)c3cc(OCC4CCOCC4)nc(C4CC4)c3)C[C@@H]1CN(C(=O)N1CCc3[nH]nnc3C1)C2` (racemic) [Example 2.00, trans-[3a-Methoxy-5-(1,4,6,7-tetrahydrotriazolo[4,5-c]pyridine-5-carbonyl)-3,4,6,6a-tetrahydro-1H-pyrrolo[3,4-c]pyrrol-2-yl]-[2-cyclopropyl-6-(oxan-4-ylmethoxy)pyridin-4-yl]methanone] had an IC50 of 12 nM. The same measure, in the same setting: the result for `CO[C@]12CN(C(=O)c3cc(OCC4CCOCC4)nc(C4CC4)c3)C[C@@H]1CN(C(=O)N1CCc3[nH]nnc3C1)C2` (single isomer, unassigned) [Example 3.00, trans-[3a-methoxy-5-(1,4,6,7-tetrahydrotriazolo[4,5-c]pyridine-5-carbonyl)-3,4,6,6a-tetrahydro-1H-pyrrolo[3,4-c]pyrrol-2-yl]-[2-cyclopropyl-6-(oxan-4-ylmethoxy)pyridin-4-yl]methanone] reads 6 nM.

For `CO[C@]12CN(C(=O)c3cc(OCC4CCOCC4)nc(C4CC4)c3)C[C@@H]1CN(C(=O)N1CCc3[nH]nnc3C1)C2` (single isomer, unassigned) [Example 4.00, trans-[3a-methoxy-5-(1,4,6,7-tetrahydrotriazolo[4,5-c]pyridine-5-carbonyl)-3,4,6,6a-tetrahydro-1H-pyrrolo[3,4-c]pyrrol-2-yl]-[2-cyclopropyl-6-(oxan-4-ylmethoxy)pyridin-4-yl]methanone], the IC50 came out at 10 nM.

These data come from patent publication US10787459B2, “Bicyclic compounds as ATX inhibitors” (Hoffmann-La Roche Inc., priority 2015, dated 2020).
